Results from patent US20220396569A1 (Carmot Therapeutics, Inc., priority 2021, published 2022).

These compounds were tested against T1, human GLP-1 receptor (Homo sapiens, UniProt P43220) (assay: GLP-1R cAMP Assay (HitHunter cAMP accumulation)). Settings: cAMP accumulation, CHO cells stably overexpressing human GLP-1 receptor, 30 min treatment; read-out: EC50.
T1 construct: expressed in transfected cells
Format: cell-based
Summary of the method: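 CHO cells stably expressing human GLP-1R, 10,000 cells/well in HBSS with 10 mM HEPES and 625 μM IBMX, were mixed with anti-cAMP antibody reagent. Compound was applied as a 20-point dose response in triplicate for 30 min. After lysis and overnight detection, luminescence was read and dose-response curves analysed.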

T1 sequence (P43220 24-463): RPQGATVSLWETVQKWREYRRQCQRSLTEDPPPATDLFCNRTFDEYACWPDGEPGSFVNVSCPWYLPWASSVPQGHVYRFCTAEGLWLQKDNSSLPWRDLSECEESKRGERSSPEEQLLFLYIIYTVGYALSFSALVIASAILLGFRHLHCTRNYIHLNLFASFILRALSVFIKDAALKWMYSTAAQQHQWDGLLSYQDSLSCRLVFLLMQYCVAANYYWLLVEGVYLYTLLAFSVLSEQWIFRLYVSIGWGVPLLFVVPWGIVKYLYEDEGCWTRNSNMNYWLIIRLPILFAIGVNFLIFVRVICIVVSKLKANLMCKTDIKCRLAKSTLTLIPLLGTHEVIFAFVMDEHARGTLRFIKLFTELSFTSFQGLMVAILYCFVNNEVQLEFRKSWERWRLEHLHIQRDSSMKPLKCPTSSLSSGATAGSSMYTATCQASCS

EC50 [nM] | Compound
50 to 500 | N#Cc1ccc(OCc2nc([C@H]3CCN(Cc4nc5c(F)cc(C(=O)O)cc5n4C[C@@H]4CCO4)C3)ccc2F)c(F)c1 [Compound 455, 2-{[(3S)-3-{6-[(4-cyano-2-fluorophenoxy)methyl]-5-fluoropyridin-2-yl}pyrrolidin-1-yl]methyl}-4-fluoro-1-{[(2S)-oxetan-2-yl]methyl}-1H-1,3-benzodiazole-6-carboxylic acid]
< 50 | O=C(O)c1ccc2nc(CN3CCC(c4nc(COc5ccc(Cl)cc5F)ccc4F)C3)n(C[C@@H]3CCO3)c2c1 (stereo partly drawn) [Compound 456, 2-[(3-{6-[(4-chloro-2-fluorophenoxy)methyl]-3-fluoropyridin-2-yl}pyrrolidin-1-yl)methyl]-1-{[(2S)-oxetan-2-yl]methyl}-1H-1,3-benzodiazole-6-carboxylic acid]
< 50 | O=C(O)c1cc(F)c2nc(CN3CCC(c4nc(COc5ccc(Cl)cc5F)ccc4F)C3)n(C[C@@H]3CCO3)c2c1 (stereo partly drawn) [Compound 457, 2-[(3-{6-[(4-chloro-2-fluorophenoxy)methyl]-3-fluoropyridin-2-yl}pyrrolidin-1-yl)methyl]-4-fluoro-1-{[(2S)-oxetan-2-yl]methyl}-1H-1,3-benzodiazole-6-carboxylic acid]
< 50 | N#Cc1ccc(OCc2ccc(F)c(C3=CCN(Cc4nc5ccc(C(=O)O)cc5n4C[C@@H]4CCO4)C3)n2)c(Cl)c1 [Compound 458, 2-[(3-{6-[(2-chloro-4-cyanophenoxy)methyl]-3-fluoropyridin-2-yl}-2,5-dihydro-1H-pyrrol-1-yl)methyl]-1-{[(2S)-oxetan-2-yl]methyl}-1H-1,3-benzodiazole-6-carboxylic acid]
< 50 | CCn1cncc1Cn1c(Cc2ccc(Oc3cccc(COc4ccc(C#N)cc4F)n3)cc2F)nc2ccc(C(=O)O)cc21 [Compound 461, 2-{[4-({6-[(4-cyano-2-fluorophenoxy)methyl]pyridin-2-yl}oxy)-2-fluorophenyl]methyl}-1-[(1-ethyl-1H-imidazol-5-yl)methyl]-1H-1,3-benzodiazole-6-carboxylic acid]
< 50 | CCn1cncc1Cn1c(Cc2ccc(Oc3ccnc(COc4ccc(Cl)cc4F)c3)cc2F)nc2ccc(C(=O)O)cc21 [Compound 462, 2-{[4-({2-[(4-chloro-2-fluorophenoxy)methyl]pyridin-4-yl}oxy)-2-fluorophenyl]methyl}-1-[(1-ethyl-1H-imidazol-5-yl)methyl]-1H-1,3-benzodiazole-6-carboxylic acid]
< 50 | CCn1cncc1Cn1c(Cc2ccc(Oc3cccc(COc4ccc(Cl)cc4F)n3)cc2F)nc2ccc(C(=O)O)cc21 [Compound 463, 2-{[4-({6-[(4-chloro-2-fluorophenoxy)methyl]pyridin-2-yl}oxy)-2-fluorophenyl]methyl}-1-[(1-ethyl-1H-imidazol-5-yl)methyl]-1H-1,3-benzodiazole-6-carboxylic acid]
< 50 | O=C(O)c1ccc2nc(Cc3ccc(Oc4cccc(COc5ccc(Cl)cc5F)n4)cc3F)n(C[C@@H]3CCO3)c2c1 [Compound 464, 2-{[4-({6-[(4-chloro-2-fluorophenoxy)methyl]pyridin-2-yl}oxy)-2-fluorophenyl]methyl}-1-{[(2S)-oxetan-2-yl]methyl}-1H-1,3-benzodiazole-6-carboxylic acid]
< 50 | N#Cc1ccc(OCc2nccc(Oc3ccc(Cc4nc5ccc(C(=O)O)cc5n4C[C@@H]4CCO4)c(F)c3)n2)c(F)c1 [Compound 465, 2-{[4-({2-[(4-cyano-2-fluorophenoxy)methyl]pyrimidin-4-yl}oxy)-2-fluorophenyl]methyl}-1-{[(2S)-oxetan-2-yl]methyl}-1H-1,3-benzodiazole-6-carboxylic acid]
< 50 | O=C(O)c1ccc2nc(Cc3ccc(Oc4ccnc(COc5ccc(Cl)cc5F)c4)cc3F)n(C[C@@H]3CCO3)c2c1 [Compound 466, 2-{[4-({2-[(4-chloro-2-fluorophenoxy)methyl]pyridin-4-yl}oxy)-2-fluorophenyl]methyl}-1-{[(2S)-oxetan-2-yl]methyl}-1H-1,3-bcnzodiazole-6-carboxylic acid]
< 50 | N#Cc1ccc(OCc2nccc(Oc3ccc(Cc4nc5c(F)cc(C(=O)O)cc5n4C[C@@H]4CCO4)c(F)c3)n2)c(F)c1 [Compound 467]
< 50 | N#CCC1(Cn2c(Cc3ccc(Oc4ccnc(COc5ccc(C#N)cc5F)n4)cc3F)nc3ccc(C(=O)O)cc32)CC1 [Compound 468, 2-{[4-({2-[(4-cyano-2-fluorophenoxy)methyl]pyrimidin-4-yl}oxy)-2-fluorophenyl]methyl}-1-{[1-(cyanomethyl)cyclopropyl]methyl}-1H-1,3-benzodiazole-6-carboxylic acid]
< 50 | N#CCC1(Cn2c(Cc3ccc(Oc4cccc(COc5ccc(C#N)cc5F)n4)cc3F)nc3c(F)cc(C(=O)O)cc32)CC1 [Compound 469, 2-{[4-({6-[(4-cyano-2-fluorophenoxy)methyl]pyridin-2-yl}oxy)-2-fluorophenyl]methyl}-1-{[1-(cyanomethyl)cyclopropyl]methyl}-4-fluoro-1H-1,3-benzodiazole-6-carboxylic acid]
< 50 | N#Cc1ccc(OCc2nccc(Oc3cc(F)c(Cc4nc5c(F)cc(C(=O)O)cc5n4C[C@@H]4CCO4)cc3F)n2)c(F)c1 [Compound 470, 2-{[4-({2-[(4-cyano-2-fluorophenoxy)methyl]pyrimidin-4-yl}oxy)-2,5-difluorophenyl]methyl}-4-fluoro-1-{[(2S)-oxetan-2-yl]methyl}-1H-1,3-bcnzodiazole-6-carboxylic acid]
< 50 | N#Cc1ccc(OCc2ccc(F)c(C3CCN(Cc4nc5ccc(C(=O)O)cc5n4C[C@@H]4CCO4)C3)n2)c(F)c1 (stereo partly drawn) [Compound 520, 2-[(3-{6-[(4-cyano-2-fluorophenoxy)methyl]-3-fluoropyridin-2-yl}pyrrolidin-1-yl)methyl]-1-{[(2S)-oxetan-2-yl]methyl}-1H-1,3-benzodiazole-6-carboxylic acid]
< 50 | N#Cc1ccc(OCc2ccc(F)c(C3CCN(Cc4nc5c(F)cc(C(=O)O)cc5n4C[C@@H]4CCO4)C3)n2)c(F)c1 (stereo partly drawn) [Compound 521, 2-[(3-{6-[(4-cyano-2-fluorophenoxy)methyl]-3-fluoropyridin-2-yl}pyrrolidin-1-yl)methyl]-4-fluoro-1-{[(2S)-oxetan-2-yl]methyl}-1H-1,3-benzodiazole-6-carboxylic acid]
< 50 | N#Cc1ccc(OCc2nc(C34CC3CN(Cc3nc5c(F)cc(C(=O)O)cc5n3C[C@@H]3CCO3)C4)ccc2F)c(F)c1 (stereo partly drawn) [Compound 523, 2-[(1-{6-[(4-cyano-2-fluorophenoxy)methyl]-5-fluoropyridin-2-yl}-3-azabicyclo[3.1.0]hexan-3-yl)methyl]-4-fluoro-1-{[(2S)-oxetan-2-yl]methyl}-1H-1,3-benzodiazole-6-carboxylic acid]
< 50 | N#Cc1ccc(OCc2nc(C34CC3CN(Cc3nc5ccc(C(=O)O)cc5n3C[C@@H]3CCO3)C4)ccc2F)c(Cl)c1 (stereo partly drawn) [Compound 524, 2-[(1-{6-[(2-chloro-4-cyanophenoxy)methyl]-5-fluoropyridin-2-yl}-3-azabicyclo[3.1.0]hexan-3-yl)methyl]-1-{[(2S)-oxetan-2-yl]methyl}-1H-1,3-benzodiazole-6-carboxylic acid]
